The results in this text go back to patent US10550143B2, “C,O-spiro aryl glycoside compounds, preparation therefor and use thereof” (SHANGHAI INSTITUTE OF MATERIA MEDICA, CHINESE ACADEMY OF …, priority 2015, dated 2020).

Broadly, the inhibition is how much of the control response was suppressed. The term IC50 denotes the concentration that inhibits the measured activity by half.

The target in the assay is T1, human sodium-glucose cotransporter 2 (SGLT2) (Homo sapiens, UniProt P31639).
T1 construct: expressed in transfected cells; host or cells: NIH3T3 (mouse fibroblast) cells expressing hSGLT2
T1 sequence (P31639 1-672): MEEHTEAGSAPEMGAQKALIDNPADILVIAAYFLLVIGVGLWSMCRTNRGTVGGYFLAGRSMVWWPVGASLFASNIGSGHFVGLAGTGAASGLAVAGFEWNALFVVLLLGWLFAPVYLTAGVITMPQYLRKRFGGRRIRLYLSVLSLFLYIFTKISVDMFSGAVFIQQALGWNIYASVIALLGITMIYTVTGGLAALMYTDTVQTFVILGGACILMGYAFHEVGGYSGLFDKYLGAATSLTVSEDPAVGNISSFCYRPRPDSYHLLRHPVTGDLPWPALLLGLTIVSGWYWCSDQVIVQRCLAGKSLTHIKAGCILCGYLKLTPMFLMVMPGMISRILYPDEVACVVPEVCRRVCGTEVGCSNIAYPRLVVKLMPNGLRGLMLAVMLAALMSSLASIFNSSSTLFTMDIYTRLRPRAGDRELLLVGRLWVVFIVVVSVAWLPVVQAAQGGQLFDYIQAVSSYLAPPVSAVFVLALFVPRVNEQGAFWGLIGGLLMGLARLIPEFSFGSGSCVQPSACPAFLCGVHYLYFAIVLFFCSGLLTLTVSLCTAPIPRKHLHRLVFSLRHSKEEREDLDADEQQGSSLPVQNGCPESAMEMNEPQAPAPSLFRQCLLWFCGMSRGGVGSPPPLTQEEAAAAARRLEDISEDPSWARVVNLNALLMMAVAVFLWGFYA
As to the kind of experiment: In vitro SGLT2 inhibition, methyl-α-D-[U-14C]glucopyranoside uptake in NIH3T3-hSGLT2 cells. Type of assay: cell-based. Put shortly:
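The readout was scintillation-counted uptake of 14C-labelled methyl-α-D-glucopyranoside (⅙ mM unlabelled in uptake buffer) in compound-containing KRH-Na+; KRH-acetylcholine defined background. Cells were butyrate-induced (2 mM) NIH3T3-hSGLT2 at 40000/well.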

Consider `CCc1ccc(Cc2cc3c(cc2Cl)CO[C@]32O[C@H](C)[C@@H](O)[C@H](O)[C@H]2O)s1` [Example A28, (1S,3′R,4′S,5′S,6′R)-6′-methyl-6-((5-ethylthienyl)-2-methyl)-5-chloro-3′,4′,5′,6′-tetrahydro-3H-spiro[isobenzofuran-1,2′-pyran]-3′,4′,5′-triol], for which the Selectivity (IC50 SGLT1/IC50 SGLT2) came out at 1450. For the setting “SGLT2, 10 nM, read-out: % Inhibition rate ± SD 10 nM”, the inhibition at 0.01 µM was 67 ± 4.9%. Also, the inhibition at 0.1 µM (SGLT2, 100 nM, read-out: % Inhibition rate ± SD 100 nM) was 86.1 ± 2.4%. The IC50 (read-out: IC50 ± SD SGLT2) is 1.42 ± 0.2 nM.
